Assay results reported in publication PMC12067444, “Synthesis and Pharmacological Characterization of Novel Peripheral Cannabinoid-1 Receptor Blockers Based on a Tricyclic Scaffold” (Journal of Medicinal Chemistry, 2025).
Read-outs that look alike come from different tables or passages of the source.

Tests used:
[1] = Tissue distribution after acute oral administration; format: in vivo, mouse; conditions: for Kp at 1 h: male, C57Bl/6J, mouse, in vivo, 1 mg/kg PO, 1 h post-acute administration
Experimental: Male C57Bl/6J mice aged 7–9 weeks (3–4 mice per compound) were fasted overnight before administering each test compound. The compounds were accurately weighed and mixed with an appropriate vehicle to prepare a clear oral solution. The formulations were freshly prepared on the dosing day, and the mice were administered the compound via oral gavage within 4 h of formulation preparation. 1, 2, 4, and 8 h after compound administration, the mice were euthanized, and approximately 200 μL of blood was collected via cardiac puncture for plasma preparation. Brain and liver tissues were harvested and processed for analysis. Sample analysis was performed using LC-MS/MS, as described in detail in the SI. […]
calculated using the equation:
Lucif er yellow = VV bbbbbbbbbbbbbbbbbbbb ×RR FFFF bbbbbbbbbbbbbbbbbbbb ×100 […]
Measurements of BNS808 using LC-MS/MS. MS/MS analyses were conducted using a Sciex QTRAP® 6500+ mass spectrometer (Framingham, MA, USA). Air was […]
Infinity 1031 nitrogen generator (Peak Scientific, Inchinnan, Scotland). Purified air […]
generator to ensure a continuous and stable air supply.

[2] = tested on: C57BL/6J mice; assay: Assessment of centrally mediated hyperactivity (locomotor activity); format: in vivo, mouse
Experimental: The activity profiles of the mice were evaluated using the Promethion High-Definition Behavioral Phenotyping System (Sable Instruments, Inc., Las Vegas, NV, USA). MetaScreen software version 2.2.18.0 was employed for data acquisition and instrument control, while ExpeData version 1.8.4 was used for processing raw data. An analysis script detailing all aspects of the data transformation was utilized. Mice with unrestricted access to food and water were subjected to a standard 12 h light/12 h dark cycle, comprising a 16-h acclimation period followed by 24 h of sampling. Ambulatory activity and position were concurrently quantified by the number of disruptions of the infrared beams in three dimensions (XYZ) with a beam spacing of 0.25 cm.
This experiment aimed to evaluate the capacity of BNS808 and rimonabant (used as a positive control) to elicit centrally mediated hyperactivity in mice (a known feature of a brain penetrant compound). For this purpose, male wild-type C57BL/6J mice received a single dose of either the vehicle, rimonabant (10 mg/kg, PO), or BNS808 (1 or 10 mg/kg, PO). The locomotor activity was quantified by measuring the disruptions of infrared beams in two dimensions (XY) for 1 h. Each testing session involved evaluating two groups at a time.

[3] = tested on: TA100; assay: Mini-Ames assay, strain TA100; format: cell-based; conditions: for F value: fold vs DMSO; for Growth of lawn: replicates 1-3
Experimental: Mini Am es assay. To conduct the assay, top agar was melted with a microwave and maintained at a temper atur e ≥47 °C in a water bath. T he assay was performed using a heat block set to 45 °C ± 2 °C. 12 × 75 mm test tubes were prepared in duplicates. For each concentration, the following components were added sequentially to a test tube:
[…] The mixture was vortexed and then dispensed into w ells using a dispo sable pipette. The plates wer e then incubated at 37±2 °C for approximately 48 to 72 hours.
BBbbbb BBBBbbbb BBBB = AAAAbbbbbbAAbb nnnnnnbbbbbb bboo bbbbAAbbbbbbbbnnbbbb oobbbb bbbb eeee dd bbbbbb AAbbbbnn gg AAAAbbbbbbAAbb nnnnnnbbbbbb bbBB bbbbAAbbbbbbbbnnbbbb BBbbbb DDDDDDDD nn bbAAbbbbaaAAbb AAbbbbnnaa The mutagenicity of the compound was determined by evaluating the number of revertant colonies in strains TA98 and TA100. A compound was […]
related and if the fold increase in revertants (F) was equal to or greater than 2 for […]
background lawn growth on the agar plates. A scoring system ranging from 0 to 4 […]
complete cytotoxicity, while scores 1, 2, and 3 represented 25%, 50%, and 75% growth, respectively. A score of 4 signified full '100%' growth. The background […]
background lawn and required magnification for visualization. […]

[4] = Stability in simulated intestinal fluid (SIF); format: in vitro ADME

**Q.** For `O=S(=O)(NC1CCCOc2c1nn(-c1ccccc1Cl)c2-c1ccc(Cl)cc1)c1ccc(Cl)cc1` (stereo not shown) [BNS808, 4-chloro-N-[2-(2-chlorophenyl)-3-(4-chlorophenyl)-5,6,7,8-tetrahydrooxepino[3,2-c]pyrazol-8-yl]benzenesulfonamide], which liver concentration ([1]; 1 mg/kg PO acute, time point not stated) is on record?
**A.** ~200 ng/g

**Q.** What about the “brain concentration, average over time points” value ([1]; 1 mg/kg PO single acute dose, lean C57Bl/6 mice, 1, 2, 4, 8 h) of the same compound?
**A.** 13.7 ng/g

**Q.** What about the Kp at 1 h ([1]; read-out: brain-to-plasma (B/P) ratio) of the same compound?
**A.** 0.18

**Q.** And the Kp at 1 h ([1]; read-out: liver/plasma (L/P) ratio)?
**A.** 3.62

**Q.** And the CNS-mediated side effects ([2]; 1 mg/kg and 10 mg/kg PO, mice)?
**A.** No CNS-mediated side effects were observed

**Q.** And the “locomotor activity (centrally mediated hyperactivity)” value ([2]; single dose 1 or 10 mg/kg PO, male C57Bl/6J mice, 1 h)?
**A.** no significant changes in locomotor activity

**Q.** What about the “Number of revertants MEAN” value ([3]; TA100, +S9, 31.25 μg/well) of the same compound?
**A.** 40.67

**Q.** And the solubility ([3]; TA100, +S9, 31.25 μg/well)?
**A.** P0

**Q.** What about the F value ([3]; TA100, +S9, 31.25 μg/well) of the same compound?
**A.** 1.03

**Q.** And the Growth of lawn ([3]; TA100, +S9, 31.25 μg/well)?
**A.** 4 (A score of 4 signified full '100%' growth)

**Q.** And the “Number of revertants MEAN” value ([3]; TA100, +S9, 62.5 μg/well)?
**A.** 34.67

**Q.** What about the solubility ([3]; TA100, +S9, 62.5 μg/well) of the same compound?
**A.** P0

**Q.** And the F value ([3]; TA100, +S9, 62.5 μg/well)?
**A.** 0.87

**Q.** What about the Growth of lawn ([3]; TA100, +S9, 62.5 μg/well) of the same compound?
**A.** 4 (A score of 4 signified full '100%' growth)

**Q.** And the “Number of revertants MEAN” value ([3]; TA100, +S9, 125 μg/well)?
**A.** 30.00

**Q.** And the solubility ([3]; TA100, +S9, 125 μg/well)?
**A.** P0

**Q.** And the F value ([3]; TA100, +S9, 125 μg/well)?
**A.** 0.76

**Q.** And the Growth of lawn ([3]; TA100, +S9, 125 μg/well)?
**A.** 4 (A score of 4 signified full '100%' growth)

**Q.** What about the “Number of revertants MEAN” value ([3]; TA100, +S9, 250 μg/well) of the same compound?
**A.** 29.33

**Q.** And the solubility ([3]; TA100, +S9, 250 μg/well)?
**A.** P1 (0~20% growth of crystals)

**Q.** What about the F value ([3]; TA100, +S9, 250 μg/well) of the same compound?
**A.** 0.74

**Q.** What about the Growth of lawn ([3]; TA100, +S9, 250 μg/well) of the same compound?
**A.** 4 (A score of 4 signified full '100%' growth)

**Q.** What about the “Number of revertants MEAN” value ([3]; TA100, +S9, 500 μg/well) of the same compound?
**A.** 19.33

**Q.** What about the solubility ([3]; TA100, +S9, 500 μg/well) of the same compound?
**A.** P2 (20%~60% growth of crystals)

**Q.** What about the F value ([3]; TA100, +S9, 500 μg/well) of the same compound?
**A.** 0.49

**Q.** What about the Growth of lawn ([3]; TA100, +S9, 500 μg/well) of the same compound?
**A.** 4 (A score of 4 signified full '100%' growth)

**Q.** What about the “Number of revertants MEAN” value ([3]; TA100, +S9, 1000 μg/well) of the same compound?
**A.** 16.67

**Q.** And the solubility ([3]; TA100, +S9, 1000 μg/well)?
**A.** P3 (60%~100% growth of crystals)

**Q.** And the F value ([3]; TA100, +S9, 1000 μg/well)?
**A.** 0.42

**Q.** What about the Growth of lawn ([3]; TA100, +S9, 1000 μg/well) of the same compound?
**A.** 4 (A score of 4 signified full '100%' growth)

**Q.** What about the “Number of revertants MEAN” value ([3]; TA100, -S9, 31.25 μg/well) of the same compound?
**A.** 29.00

**Q.** And the solubility ([3]; TA100, -S9, 31.25 μg/well)?
**A.** P0

**Q.** What about the F value ([3]; TA100, -S9, 31.25 μg/well) of the same compound?
**A.** 0.97

**Q.** What about the Growth of lawn ([3]; TA100, -S9, 31.25 μg/well) of the same compound?
**A.** 4 (A score of 4 signified full '100%' growth)

**Q.** What about the “Number of revertants MEAN” value ([3]; TA100, -S9, 62.5 μg/well) of the same compound?
**A.** 23.67

**Q.** And the solubility ([3]; TA100, -S9, 62.5 μg/well)?
**A.** P0

**Q.** And the F value ([3]; TA100, -S9, 62.5 μg/well)?
**A.** 0.79

**Q.** And the Growth of lawn ([3]; TA100, -S9, 62.5 μg/well)?
**A.** 4 (A score of 4 signified full '100%' growth)

**Q.** What about the “Number of revertants MEAN” value ([3]; TA100, -S9, 125 μg/well) of the same compound?
**A.** 22.67

**Q.** And the solubility ([3]; TA100, -S9, 125 μg/well)?
**A.** P0

**Q.** What about the F value ([3]; TA100, -S9, 125 μg/well) of the same compound?
**A.** 0.76

**Q.** What about the Growth of lawn ([3]; TA100, -S9, 125 μg/well) of the same compound?
**A.** 4 (A score of 4 signified full '100%' growth)

**Q.** And the “Number of revertants MEAN” value ([3]; TA100, -S9, 250 μg/well)?
**A.** 23.00

**Q.** What about the solubility ([3]; TA100, -S9, 250 μg/well) of the same compound?
**A.** P1 (0~20% growth of crystals)

**Q.** What about the F value ([3]; TA100, -S9, 250 μg/well) of the same compound?
**A.** 0.77

**Q.** What about the Growth of lawn ([3]; TA100, -S9, 250 μg/well) of the same compound?
**A.** 4 (A score of 4 signified full '100%' growth)

**Q.** What about the “Number of revertants MEAN” value ([3]; TA100, -S9, 500 μg/well) of the same compound?
**A.** 18.67

**Q.** And the solubility ([3]; TA100, -S9, 500 μg/well)?
**A.** P2 (20%~60% growth of crystals)

**Q.** What about the F value ([3]; TA100, -S9, 500 μg/well) of the same compound?
**A.** 0.62

**Q.** And the Growth of lawn ([3]; TA100, -S9, 500 μg/well)?
**A.** 4 (A score of 4 signified full '100%' growth)

**Q.** What about the “amount in SIF with pancreatin” value ([4]; 0 h) of the same compound?
**A.** 2.972 mg

**Q.** And the “amount in SIF, no pancreatin” value ([4]; 0 h)?
**A.** 3.257 mg

**Q.** What about the “Initial amount (%) in SIF with pancreatin” value ([4]; 1 h) of the same compound?
**A.** 102%

**Q.** What about the “Initial amount (%) in SIF, no pancreatin” value ([4]; 1 h) of the same compound?
**A.** 101%

**Q.** And the “amount in SIF with pancreatin” value ([4]; 1 h)?
**A.** 3.023 mg

**Q.** And the “amount in SIF, no pancreatin” value ([4]; 1 h)?
**A.** 3.277 mg

**Q.** And the “Initial amount (%) in SIF with pancreatin” value ([4]; 3 h)?
**A.** 101%

**Q.** What about the “Initial amount (%) in SIF, no pancreatin” value ([4]; 3 h) of the same compound?
**A.** 100%

**Q.** What about the “amount in SIF with pancreatin” value ([4]; 3 h) of the same compound?
**A.** 3.0009 mg

**Q.** What about the “amount in SIF, no pancreatin” value ([4]; 3 h) of the same compound?
**A.** 3.266 mg

**Q.** And the “Stability in SIF” value ([4]; with and without pancreatin)?
**A.** Stable
